# Earlier results, collected in US6441051B1, “Insect eradicator and method” (priority 2001, dated 2002).
# Tested on: fire ants
# Details: d-limonene at about 5% concentration, after twenty-four hours
compound,measurement,value
C=C(C)[C@H]1CC=C(C)CC1 [d-limonene],kill rate,approximately 70%
